Key:
golden syrian hamsters = experiment: Test for anti-hyperlipidemia activity in hamsters (blood HDL-c levels); format: in vivo; conditions: male golden syrian hamsters; 3 mg/kg orally for 5 days; serum HDL-cholesterol 4 hours after last administration; vs vehicle control
Text: […] Test for Anti-Hyderlipidemia Activity in Hamsters
1. Experimental animals As test animals, 8-week-old male golden syrian hamsters were purchased and used in the experimental. The animal facility was kept at constant temperature and constant humidity with a 12-hr dark/12-hr light cycle, and the animals were allowed to access food and water ad libitum.
2. Experimental for Anti-Hyperlipidemia Activity in Hamsters
The test animals were used in the test after an acclimation of 1 week. The test animals were divided according to body weight into several groups, each consisting of 5-8 animals. 3 mg/kg of each test compound (CETP inhibitor) was administered orally to the animals. Each test compounds was suspended in a solvent vehicle that is a solution of 5% ethanol, 10% solutol and 85% deionized water (DW), to be used. Each of test compounds suspended in a solvent vehicle was administered orally to the […] for 5 days. To the control group, a solvent vehicle itself was administered. And then, after 4 hours from the last administration, blood was collected through the cardiac puncture. The collected blood was centrifuged at 3000 rpm for 15 minutes, and the concentration of HDL-cholesterol (Biosystem) in the separated serum was measured using a biochemical analyzer (ILab 300 plus, Instrumentation Laboratory).
3. Statistical Processing
All the results were expressed as mean±SEM, and each test group and the control group were compared using one-way ANOVA test (Dunnett's test, p<0.001) in order to determine the effect of each test group.

[1] = molecular target: T1, cholesteryl ester transfer protein (Homo sapiens, UniProt P11597); experiment: In vitro test for the ability to inhibit cholesteryl ester transfer; format: biochemical; conditions: [3H]-cholesteryl oleate transfer from rHDL-agarose to LDL; human plasma as CETP source; 37° C.; 16-10000 nM, duplicate
T1 construct: As a source of cholesteryl ester transfer protein, plasma from healthy humans was used; from tissue; host or cells: plasma from healthy humans
T1 sequence (P11597 18-493): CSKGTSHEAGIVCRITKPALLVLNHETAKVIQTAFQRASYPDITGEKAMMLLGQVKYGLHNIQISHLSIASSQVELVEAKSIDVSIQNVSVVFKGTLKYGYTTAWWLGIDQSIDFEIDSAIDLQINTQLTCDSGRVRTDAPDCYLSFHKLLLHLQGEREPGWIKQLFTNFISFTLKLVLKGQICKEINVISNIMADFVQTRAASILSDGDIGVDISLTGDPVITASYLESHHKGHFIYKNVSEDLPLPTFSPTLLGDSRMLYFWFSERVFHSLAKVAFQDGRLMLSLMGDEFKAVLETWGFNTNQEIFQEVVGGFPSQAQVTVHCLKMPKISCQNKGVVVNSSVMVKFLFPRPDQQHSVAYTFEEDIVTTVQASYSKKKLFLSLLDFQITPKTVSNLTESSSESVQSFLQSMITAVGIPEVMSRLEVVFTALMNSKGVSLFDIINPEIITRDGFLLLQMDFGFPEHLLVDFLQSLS
Outline: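 Human plasma served as the CETP source, with human LDL (0.25 mg/ml) as acceptor and agarose-immobilised recombinant HDL carrying [3H]-cholesteryl oleate (0.25 mg/ml) as donor, at 37 °C. Compounds were run in duplicate at 16–10000 nM. Transferred radioactivity in the supernatant was counted by beta detection, and IC50 was fitted from the fraction of label transferred to LDL.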

[2] = cited from earlier work

SMILES | HDL-c Increase (%) (golden syrian hamsters) | IC50 [1] | further results
COc1cc(F)c(C(C)C)cc1C1=C(CN2C(=O)O[C@H](c3cc(C(F)(F)F)cc(C(F)(F)F)c3)[C@@H]2C)CC(C)(C)CC1 [Compound 19, (4S,5R)-5-(3,5-bis(trifluoromethyl)phenyl)-3-((2-(4-fluoro-5-isopropyl-2-methoxyphenyl)-5,5-dimethylcyclohex-1-enyl)methyl)-4-methyloxazolidin-2-one] | 35% | – | –
COc1cc(F)c(C(C)C)cc1C1=C(CN2C(=O)O[C@H](c3cc(C(F)(F)F)cc(C(F)(F)F)c3)[C@@H]2C)CC(C)CC1 (stereo partly drawn) [Compound 25] | 33% | 200 nM | –
COC(=O)c1ccc(OC)c(C2=C(CN3C(=O)O[C@H](c4cc(C(F)(F)F)cc(C(F)(F)F)c4)[C@@H]3C)CCCC2)c1 [Compound 36, methyl 3-(2-(((4S,5R)-5-(3,5-bis(trifluoromethyl)phenyl)-4-methyl-2-oxooxazolidin-3-yl)methyl)cyclohex-1-enyl)-4-methoxybenzoate] | 11% | 1090 nM | –
COc1cc(F)c(C(C)C)cc1C1=C(CN2C(=O)O[C@H](c3cc(C(F)(F)F)cc(C(F)(F)F)c3)[C@@H]2C)CC(C(F)(F)F)CC1 (stereo partly drawn) [Compound 48, (4S,5R)-5-(3,5-bis(trifluoromethyl)phenyl)-3-((2-(4-fluoro-5-isopropyl-2-methoxyphenyl)-5-(trifluoromethyl)cyclohex-1-enyl)methyl)-4-methyloxazolidin-2-one] | 41% | 5 nM | –
COc1ccc(C(F)(F)F)cc1C1=C(CN2C(=O)O[C@H](c3cc(C(F)(F)F)cc(C(F)(F)F)c3)[C@@H]2C)CC(C)(C)CC1 [Compound 97, (4S,5R)-5-(3,5-bis(trifluoromethyl)phenyl)-3-((2-(2-methoxy-5-(trifluoromethyl)phenyl)-5,5-dimethylcyclohex-1-enyl)methyl)-4-methyloxazolidin-2-one] | 22% | 20 nM | –
COc1ccc(C(C)C)cc1C1=C(CN2C(=O)O[C@H](c3cc(C(F)(F)F)cc(C(F)(F)F)c3)[C@@H]2C)CC(C(F)(F)F)CC1 (stereo partly drawn) [Compound 108, (4S,5R)-5-(3,5-bis(trifluoromethyl)phenyl)-3-((2-(5-isopropyl-2-methoxyphenyl)-5-(trifluoromethyl)cyclohex-1-enyl)methyl)-4-methyloxazolidin-2-one] | 23% | 20 nM | –
COc1ccc(N(C)C(C)=O)cc1C1=C(CN2C(=O)O[C@H](c3cc(C(F)(F)F)cc(C(F)(F)F)c3)[C@@H]2C)CC(C)(C)CC1 [Compound 112, N-(3-(2-(((4S,5R)-5-(3,5-bis(trifluoromethyl)phenyl)-4-methyl-2-oxooxazolidin-3-yl)methyl)-4,4-dimethylcyclohex-1-enyl)-4-methoxyphenyl)-N-methylacetamide] | 43% | 8 nM | –
COc1ccc(N(C)C(=O)C(C)C)cc1C1=C(CN2C(=O)O[C@H](c3cc(C(F)(F)F)cc(C(F)(F)F)c3)[C@@H]2C)CC(C)(C)CC1 [Compound 113, N-(3-(2-(((4S,5R)-5-(3,5-bis(trifluoromethyl)phenyl)-4-methyl-2-oxooxazolidin-3-yl)methyl)-4,4-dimethylcyclohex-1-enyl)-4-methoxyphenyl)-N-methylisobutyramide] | 17% | – | –
COc1ccc(C(C)(C)C)cc1C1=C(CN2C(=O)O[C@H](c3cc(C(F)(F)F)cc(C(F)(F)F)c3)[C@@H]2C)CC(C)(C)CC1 [Compound 115, (4S,5R)-5-(3,5-bis(trifluoromethyl)phenyl)-3-((2-(5-tert-butyl-2-methoxyphenyl)-5,5-dimethylcyclohex-1-enyl)methyl)-4-methyloxazolidin-2-one] | 29% | 10 nM | –
COc1cc(F)c(C(C)C(F)(F)F)cc1C1=C(CN2C(=O)O[C@H](c3cc(C(F)(F)F)cc(C(F)(F)F)c3)[C@@H]2C)CC(C)(C)CC1 (stereo partly drawn) [Compound 132, (4S,5R)-5-(3,5-bis(trifluoromethyl)phenyl)-3-((2-(4-fluoro-2-methoxy-5-(1,1,1-trifluoropropan-2-yl)phenyl)-5,5-dimethylcyclohex-1-enyl)methyl)-4-methyloxazolidin-2-one] | 33% | 50 nM | –
COc1cc(F)c(C(C)C)cc1C1=C(CN2C(=O)O[C@H](c3cc(C(F)(F)F)cc(C(F)(F)F)c3)[C@@H]2C)CC2(CC1)CC2 [Compound 274, (4S,5R)-5-(3,5-bis(trifluoromethyl)phenyl)-3-((6-(4-fluoro-5-isopropyl-2-methoxyphenyl)spiro[2.5]oct-5-en-5-yl)methyl)-4-methyloxazolidin-2-one] | 21% | 14 nM | –
COc1ccc(CC(C)(C)C(=O)O)cc1C1=C(CN2C(=O)O[C@H](c3cc(C(F)(F)F)cc(C(F)(F)F)c3)[C@@H]2C)CC(C)(C)CC1 [Compound 286, 3-(3-(2-(((4S,5R)-5-(3,5-bis(trifluoromethyl)phenyl)-4-methyl-2-oxooxazolidin-3-yl)methyl)-4,4-dimethylcyclohex-1-enyl)-4-methoxyphenyl)-2,2-dimethylpropanoic acid] | 42% | 12 nM | –
COc1cc(F)c(C2(C)CC2)cc1C1=C(CN2C(=O)O[C@H](c3cc(C(F)(F)F)cc(C(F)(F)F)c3)[C@@H]2C)CC(C)(C)CC1 [Compound 302, (4S,5R)-5-(3,5-bis(trifluoromethyl)phenyl)-3-((2-(4-fluoro-2-methoxy-5-(1-methylcyclopropyl)phenyl)-5,5-dimethylcyclohex-1-enyl)methyl)-4-methyloxazolidin-2-one] | 38% | 6 nM | –
CCC(CC)CC1(C(=O)Nc2ccccc2SC(=O)C(C)C)CCCCC1 [Dalcetrapib] | – | – | rise in HDL-C ([2]; in vivo): insufficient rise in HDL-C
O=C(O)c1cccnc1 [Niacin] | – | – | side effects ([2]; relatively large doses): facial flushing
CCOC(=O)N1c2ccc(C(F)(F)F)cc2[C@@H](N(Cc2cc(C(F)(F)F)cc(C(F)(F)F)c2)C(=O)OC)C[C@H]1CC [Torcetrapib] | – | – | effect on blood pressure ([2]; clinical trials terminated): increases in blood pressure; effect on mortality ([2]; clinical trials terminated): increase in mortality; effect on hormone levels ([2]; hormones associated with elevation in blood pressure): increases the levels of hormones, such as aldosterone and cortisol; effect on vascular wall ([2]; in vivo): increases the thickness of the vascular wall to cause inflammation
